Assay results: article PMC9228955, “Synthesis, Physicochemical, Labeling and In Vivo Characterization of ^44Sc-Labeled DO3AM-NI as a Hypoxia-Sensitive PET Probe” (Pharmaceuticals, 2022)
Read-outs that look alike come from different tables or passages of the source.

How the values were obtained:
[1] = 25 °C, cited from earlier work
[2] = Stability constant of Sc(III) complex by 1H and 45Sc NMR batch samples and pH-potentiometric titration; pSc calculation; assay type: physicochemical; conditions: for pSc (-log[Sc(III)]free): [Sc(III)]tot = 1 × 10^−8 M, [L]tot = 1 × 10^−7 M, pH = 7.4
Description: The stability constant of the Sc(DO3AM-NI) complex was assessed by ^1H and ^45Sc-NMR studies using samples prepared in the 0.055–0.195 M acid concentration range. […] Absence of protonation and the presence of a ternary hydroxydo species formation with KScL•OH = 10.88(5) were detected at our experimental conditions. The NMR samples contained 3.32 mM ligand, ScCl3 and a constant ionic strength of 0.15 M NaCl. The samples were thermostated at 37 °C, and their ^1H- and ^45Sc-NMR spectra were recorded after 60 days. In order to ensure that the equilibrium in the samples was attained, the ^1H and ^45Sc-NMR measurements were repeated again 90 days later. The spectra were practically identical with the spectra recorded at 60 days (Figures S4 and S5). As expected, the thermodynamic stability constant of the Sc(DO3AM-NI) complex (log KScL = 22.36(4)) was considerably lower than those of Sc(III) complexes formed with DOTA, DTPA or AAZTA ligands (Table 1). A moderate decrease in terms of thermodynamic stability constants was already observed for the complexes of DO3A-monamides formed with Gd(III) ions in comparison to the stability of parent Gd(DOTA)^− chelate. Despite the lower stability constant of the complex, the Sc(III) ion was complexed completely around pH = 2.0 (in a millimolar concentration range, see Figure 2). However, it might be misleading to directly compare the stability constants of the complexes formed by ligands of different basicity (as it depends on the basicity of the ligand); therefore, we calculated and compared the pSc values (which could be treated as conditional constants) for the complexes shown in Table 1 by taking the protonation constants of ligands, the stability constants of the complex species present in solution and the hydrolysis of the Sc(III) ion (according to Ref. [23]: log βSc(OH) = −4.3, log βSc(OH)2 = −9.7, log βSc(OH)3 = −16.1, log βSc(OH)4 = −26.0 and log βSc2(OH)4 = −6.0) into account.
(§1) The equilibrium measurements were performed at constant ionic strength maintained by 0.15 M NaCl at 37 °C. For determining the protonation constants of DO3AM-NI, two parallel pH-potentiometric titrations were performed with 0.1611 M NaOH in a 5.00 cm^3 sample containing the ligand at the concentration of 2.76 mM. The stability constant of Sc(DO3AM-NI) was assessed by ^1H and ^45Sc NMR in 0.7 mL “batch” samples containing the metal and the ligand at 3.32 mM and different concentrations of strong acid (0.05–0.20 M) aged 90 days (see below). The formation of protonated and ternary hydroxydo complex species was probed by pH-potentiometric titration by titrating the preformed complex (at a concentration of 1.95 mM) with standardized NaOH solution. For the calculation of the logKMH-1L value, the VNaOH–pH data used were obtained in the pH range 1.68–11.85. The pH-potentiometric titrations were carried out with a Metrohm 785 DMP Titrino titration workstation with the use of a Metrohm-6.0233.100-combined electrode calibrated via a two-point calibration routine using KH-phthalate (pH = 4.005) and borax (pH = 9.177) buffers. The titrated samples were stirred with a magnetic stirrer, and N2 gas was bubbled through the solutions to avoid the effect of CO2. For the calculation of [H^+] from the measured pH values, the method proposed by Irving et al. was applied. For this, a 0.01M HCl solution was titrated with the standardized NaOH solution in the presence of 0.15 M NaCl ionic strength at 37 °C. The differences between the measured (pHread) and calculated pH (-log[H^+]) values were used to obtain the equilibrium H^+ concentration from the pHmeas values during the titrations. […] For the calculation of the equilibrium constants, the PSEQUAD program was used.
^1H- and ^45Sc-NMR measurements (400 MHz and 97 MHz, respectively) were performed with a Bruker DRX 400 (9.4 T) spectrometer equipped with a Bruker VT-1000 thermocontroller and a BB inverse z-gradient probe (5 mm). […]

[3] = 25 °C, cited from earlier work; remark: listed apart in the source
[4] = pH-potentiometric determination of ligand protonation constants; assay type: physicochemical; conditions: 0.15 M NaCl, 37 °C
Description: Equilibrium measurements were commenced by determining the protonation constants of the ligand, measured at 37 °C (I = 0.15 M NaCl) owing to the relevance of the chelate under in vivo conditions. The protonation constants obtained by fitting the pH-potentiometric data for the ligand DO3AM-NI are shown in Table 1 along with the literature data published for DOTA and certain DO3A-monoamides (DO3A-mono-N-buthylamide as well as that of a hypoxia-sensitive MRI probe reported by some of us a couple of years ago). Five protonation steps were observed by performing the titration in the pH range of 1.72–11.85 for the DO3AM-NI monoamide type ligand, two of which (characterized by high constants) describe the protonation of nitrogen atoms in the macrocycle (positioned trans- to each other), while the remaining log Ki^H values (much lower) likely reflect the protonation of the carboxylates. The replacement of an acetate group of DOTA by an amide moiety results in a decrease in the protonation sites of the ligand, and as a consequence the overall basicity of the ligand (expressed as the sum of the protonation constants, log β015) was as expected, predicted from the data published in literature. What is more, the formation of a weak Na^+ complex (originating from the ionic strength) competing with the first protonation process may be responsible of the lower value of the first protonation constant.
as §1

[5] = constants at 0.1 M Me4NCl, 25 °C from Ref. 19

## O=C(O)CN(CCN(CC(=O)O)CC(=O)O)CCN(CC(=O)O)CC(=O)O [DTPA]
[1]; 0.1 M Me4NCl
  log KScL•H (protonation constant of Sc(III) complex): 1.36
  log KScL•OH (ternary hydroxydo species): 12.44
  log KSc•L (stability constant of Sc(III) complex): 27.43
[2]; [5]
  pSc (-log[Sc(III)]free): 23.88
[3]; 0.1 M Me4NCl
  log K1^H: 10.65
  log K2^H: 8.66
  log K3^H: 4.36
  log K4^H: 2.82
  log K5^H: 2.03
  log K6^H: 1.31
  log K7^H: 1.30
  log β015 (sum of the protonation constants): 28.52

## O=C(O)CN1CCN(CC(=O)O)CCN(CC(=O)NCCn2ccnc2[N+](=O)[O-])CCN(CC(=O)O)CC1 [DO3AM-NI]
[2]; 0.15 M NaCl, 37 °C
  log KScL•OH (ternary hydroxydo species): 10.88(5)
  log KSc•L (stability constant of Sc(III) complex): 22.36(4)
[2]; constants at 0.15 M NaCl, 37 °C
  pSc (-log[Sc(III)]free): 20.74
[4]
  log K1^H: 8.79(1)
  log K2^H: 8.59(1)
  log K3^H: 4.23(1)
  log K4^H: 2.49(1)
  log K5^H: 1.00(4)
  log β015 (sum of the protonation constants): 25.10

## CCCCNC(=O)CN1CCN(CC(=O)O)CCN(CC(=O)O)CCN(CC(=O)O)CC1 [DO3AM^nBu, DO3A-mono-N-buthylamide]
[3]; 1.0 M KCl
  log K1^H: 9.78
  log K2^H: 9.05
  log K3^H: 4.53
  log K4^H: 3.17
  log K5^H: 2.19
  log β015 (sum of the protonation constants): 28.72

## O=C(O)CN1CCN(CC(=O)O)CCN(CC(=O)O)CCN(CC(=O)O)CC1 [DOTA, 1,4,7,10-tetraazacyclododecane-1,4,7,10-tetraacetic acid]
[1]; 0.1 M Me4NCl
  log KScL•H (protonation constant of Sc(III) complex): 1.00
  log KSc•L (stability constant of Sc(III) complex): 30.79
[2]; [5]
  pSc (-log[Sc(III)]free): 23.92
[3]; 0.1 M Me4NCl
  log K1^H: 12.90
  log K2^H: 9.72
  log K3^H: 4.62
  log K4^H: 4.15
  log K5^H: 2.29
  log K6^H: 1.34
  log β015 (sum of the protonation constants): 33.68

## CC1(N(CC(=O)O)CC(=O)O)CN(CC(=O)O)CCN(CC(=O)O)C1 [AAZTA]
[1]; 0.1 M KCl
  log KScL•H (protonation constant of Sc(III) complex): 0.86
  log KSc•L (stability constant of Sc(III) complex): 27.69
[2]; constants at 0.1 M KCl, 25 °C from Ref. 20
  pSc (-log[Sc(III)]free): 24.72
[3]; 0.1 M KCl
  log K1^H: 11.26
  log K2^H: 6.62
  log K3^H: 3.86
  log K4^H: 2.45
  log K5^H: 1.88
  log K6^H: 1.46
